The source made the active and inactive calls. The rule behind the calls is not given here.
How the values were obtained:
Cholinesterase = Cholinesterase (Equus caballus, UniProt P81908); assay: Inhibition of BCHE in Equus caballus (horse) serum using butyrylthiocholine iodide as substrate preincubated with enzyme for 15 min prior to substrate addition measured every 45 s by colorimetric Ellman's method
Acetylcholinesterase = Acetylcholinesterase (Electrophorus electricus, UniProt O42275); assay: Inhibition of Electrophorus electricus (electric eel) AChE using acetylthiocholine iodide as substrate preincubated with enzyme for 15 min prior to substrate addition measured every 45 s by colorimetric Ellman's method
[1] = target: Acetylcholinesterase (Electrophorus electricus) (UniProt O42275); assay: Inhibition of Electrophorus electricus (electric eel) AChE using acetylthiocholine iodide as substrate at 10 mg/ml by TLC-B assay
[2] = target: Acetylcholinesterase (Electrophorus electricus) (UniProt O42275); assay: Non-competitive inhibition of Electrophorus electricus (electric eel) AChE assessed as decrease in Vmax with unchanged Km using acetylthiocholine iodide as substrate by Lineweaver-burk plot analysis
[3] = target: Cholinesterase (Equus caballus) (UniProt P81908); assay: Non-competitive inhibition of BCHE in Equus caballus (horse) serum assessed as decrease in Vmax with unchanged Km using butyrylthiocholine iodide as substrate by Lineweaver-burk plot analysis
Chain of Cholinesterase (Equus caballus) (P81908 whole entry): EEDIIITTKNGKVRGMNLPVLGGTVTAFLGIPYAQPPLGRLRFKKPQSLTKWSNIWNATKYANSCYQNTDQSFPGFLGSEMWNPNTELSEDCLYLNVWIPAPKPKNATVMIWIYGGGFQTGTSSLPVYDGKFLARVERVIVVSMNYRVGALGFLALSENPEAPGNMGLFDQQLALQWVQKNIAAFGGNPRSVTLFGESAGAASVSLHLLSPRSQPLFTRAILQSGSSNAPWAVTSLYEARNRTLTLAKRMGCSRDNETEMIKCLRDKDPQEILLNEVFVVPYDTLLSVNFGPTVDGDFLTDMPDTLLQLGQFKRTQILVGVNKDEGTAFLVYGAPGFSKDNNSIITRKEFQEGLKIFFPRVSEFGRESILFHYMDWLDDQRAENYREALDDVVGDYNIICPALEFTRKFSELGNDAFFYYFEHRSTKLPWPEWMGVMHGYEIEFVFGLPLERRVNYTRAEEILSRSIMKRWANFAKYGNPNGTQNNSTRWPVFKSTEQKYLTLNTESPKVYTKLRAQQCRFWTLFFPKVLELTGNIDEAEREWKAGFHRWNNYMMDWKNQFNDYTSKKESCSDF

Chain of Acetylcholinesterase (Electrophorus electricus) (O42275 24-633 limits assumed): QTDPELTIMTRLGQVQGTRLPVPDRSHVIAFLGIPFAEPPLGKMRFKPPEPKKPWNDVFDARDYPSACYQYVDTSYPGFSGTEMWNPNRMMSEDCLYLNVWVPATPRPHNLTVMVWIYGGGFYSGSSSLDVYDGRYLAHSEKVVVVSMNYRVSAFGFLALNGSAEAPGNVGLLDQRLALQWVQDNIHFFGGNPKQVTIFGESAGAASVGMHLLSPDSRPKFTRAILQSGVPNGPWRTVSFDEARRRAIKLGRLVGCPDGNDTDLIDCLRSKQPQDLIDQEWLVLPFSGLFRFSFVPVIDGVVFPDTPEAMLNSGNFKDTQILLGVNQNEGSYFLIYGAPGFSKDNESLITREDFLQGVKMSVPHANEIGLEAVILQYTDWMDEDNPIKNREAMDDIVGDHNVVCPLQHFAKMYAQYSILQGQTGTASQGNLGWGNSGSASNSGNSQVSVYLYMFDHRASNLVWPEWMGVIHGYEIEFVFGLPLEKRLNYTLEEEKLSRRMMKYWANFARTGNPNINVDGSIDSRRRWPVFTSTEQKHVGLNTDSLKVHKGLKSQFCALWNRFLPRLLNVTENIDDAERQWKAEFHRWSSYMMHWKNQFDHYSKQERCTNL
Chain of Cholinesterase (P81908 whole entry): as the sequence (P81908 whole entry) above
Chain of Acetylcholinesterase (O42275 whole entry): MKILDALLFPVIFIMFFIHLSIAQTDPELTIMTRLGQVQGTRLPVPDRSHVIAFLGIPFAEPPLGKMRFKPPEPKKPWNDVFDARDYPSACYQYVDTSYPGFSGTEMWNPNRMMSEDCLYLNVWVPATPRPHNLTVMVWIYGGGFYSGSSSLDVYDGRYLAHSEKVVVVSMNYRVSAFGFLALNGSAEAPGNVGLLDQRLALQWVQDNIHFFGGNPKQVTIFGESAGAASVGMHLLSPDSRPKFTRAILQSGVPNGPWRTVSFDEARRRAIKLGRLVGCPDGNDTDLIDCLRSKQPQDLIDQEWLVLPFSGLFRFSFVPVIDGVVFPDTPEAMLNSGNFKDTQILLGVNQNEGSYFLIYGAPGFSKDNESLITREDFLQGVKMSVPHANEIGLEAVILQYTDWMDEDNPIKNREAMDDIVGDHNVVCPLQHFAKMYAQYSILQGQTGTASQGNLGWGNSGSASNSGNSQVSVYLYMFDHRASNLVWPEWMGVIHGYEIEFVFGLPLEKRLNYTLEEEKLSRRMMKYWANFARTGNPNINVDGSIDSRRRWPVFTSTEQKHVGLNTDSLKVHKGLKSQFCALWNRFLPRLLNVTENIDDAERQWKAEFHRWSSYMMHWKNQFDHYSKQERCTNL

Structure (SMILES) | IC50 (Cholinesterase) [µM] | IC50 (Acetylcholinesterase) [µM] | inhibition [1] | inhibition [2] | inhibition [3]
Brc1ccc(NCc2ccccc2)cc1 | > 100 | > 100 | Active |  | 
COc1ccc(N(Cc2ccc(C)cc2)C(=O)/C=C/C(=O)N(Cc2ccc(C)cc2)c2ccc(OC)cc2)cc1 | 41 | 11.2 | Active |  | 
CCc1ccc(NCc2ccccc2)cc1 | > 100 | > 100 | Active |  | 
CCc1ccc(N(Cc2ccc(C)cc2)C(=O)/C=C/C(=O)N(Cc2ccc(C)cc2)c2ccc(CC)cc2)cc1 | 44.7 | 29.4 | Active |  | 
CCOc1ccc(NCc2ccccc2)cc1 | > 100 | > 100 | Active |  | 
O=C(/C=C/C(=O)N(Cc1ccccc1)c1ccc(Br)cc1)N(Cc1ccccc1)c1ccc(Br)cc1 | 16.5 | 8.06 | Active | Active | Active
Fc1ccc(NCc2ccccc2)cc1 | > 100 | > 100 | Active |  | 
O=C(/C=C/C(=O)N(Cc1ccccc1)c1ccc(I)cc1)N(Cc1ccccc1)c1ccc(I)cc1 | 23.3 | 0.97 | Active |  | 
COc1ccc(NCc2ccc(C)cc2)cc1 | > 100 | 1.33 | Active |  | 
CCOc1ccc(N(Cc2ccc(C)cc2)C(=O)/C=C/C(=O)N(Cc2ccc(C)cc2)c2ccc(OCC)cc2)cc1 | > 100 | 2.23 | Active |  | 
Cc1ccc(CN(C(=O)/C=C/C(=O)N(Cc2ccc(C)cc2)c2ccc(C)cc2)c2ccc(C)cc2)cc1 | 54.8 | 43.1 | Active |  | 
c1ccc(CNc2ccccc2)cc1 [N-BENZYLANILINE] | > 100 | 13 | Active |  | 
Ic1ccc(NCc2ccccc2)cc1 | > 100 | > 100 | Active |  | 
Cc1ccc(CNc2ccc(I)cc2)cc1 | > 100 | > 100 | Active |  | 
Cc1ccc(CN(C(=O)/C=C/C(=O)N(Cc2ccc(C)cc2)c2ccc(Cl)cc2)c2ccc(Cl)cc2)cc1 | 45.6 | 2.42 | Active |  | 
CCOc1ccc(N(Cc2ccccc2)C(=O)/C=C/C(=O)N(Cc2ccccc2)c2ccc(OCC)cc2)cc1 | 44 | 35.9 | Active |  | 
Cc1ccc(CNc2ccc(F)cc2)cc1 | > 100 | > 100 | Active |  | 

Structure (SMILES) | IC50 (Cholinesterase) [µM] | IC50 (Acetylcholinesterase) [µM] | inhibition [1] | inhibition [2] | inhibition [3]
Cc1ccc(CNc2ccc(Cl)cc2)cc1 | > 100 | > 100 | Active |  | 
CCc1ccc(N(Cc2ccccc2)C(=O)/C=C/C(=O)N(Cc2ccccc2)c2ccc(CC)cc2)cc1 | 49.3 | 32.2 | Active |  | 
Cc1ccc(CNc2ccc(Br)cc2)cc1 | > 100 | > 100 | Active |  | 
Cc1ccc(CN(C(=O)/C=C/C(=O)N(Cc2ccc(C)cc2)c2ccc(Br)cc2)c2ccc(Br)cc2)cc1 | 23.1 | 0.14 | Active | Active | Active
COc1ccc(N(Cc2ccccc2)C(=O)/C=C/C(=O)N(Cc2ccccc2)c2ccc(OC)cc2)cc1 | 43.6 | 13.9 | Active |  | 
Cc1ccc(N(Cc2ccccc2)C(=O)/C=C/C(=O)N(Cc2ccccc2)c2ccc(C)cc2)cc1 | 26.3 | 12.5 | Active |  | 
Clc1ccc(NCc2ccccc2)cc1 | > 100 | > 100 | Active |  | 
O=C(/C=C/C(=O)N(Cc1ccccc1)c1ccccc1)N(Cc1ccccc1)c1ccccc1 | 52.4 | 11.8 | Active |  | 
Cc1ccc(NCc2ccccc2)cc1 [N-BENZYL-4-METHYLANILINE] | > 100 | > 100 | Active |  | 
CCOc1ccc(NCc2ccc(C)cc2)cc1 | 4.07 | > 100 | Active |  | 
O=C(/C=C/C(=O)N(Cc1ccccc1)c1ccc(Cl)cc1)N(Cc1ccccc1)c1ccc(Cl)cc1 | 57.7 | 2.53 | Active |  | 
CCc1ccc(NCc2ccc(C)cc2)cc1 | > 100 | > 100 | Active |  | 
O=C(/C=C/C(=O)N(Cc1ccccc1)c1ccc(F)cc1)N(Cc1ccccc1)c1ccc(F)cc1 | 89.5 | 4.5 | Active |  | 
Cc1ccc(CN(C(=O)/C=C/C(=O)N(Cc2ccc(C)cc2)c2ccc(F)cc2)c2ccc(F)cc2)cc1 | 56.6 | 23.9 | Active |  | 
Cc1ccc(CNc2ccc(C)cc2)cc1 | > 100 | > 100 | Active |  | 
Cc1ccc(CN(C(=O)/C=C/C(=O)N(Cc2ccc(C)cc2)c2ccc(I)cc2)c2ccc(I)cc2)cc1 | 24.6 | 17.7 | Active |  | 

From ChEMBL document CHEMBL3046356, “Synthesis and anticholinesterase activity of fumaramide derivatives” (Med Chem Res, 2013)
